{
  "source": "patent US20120269793A1",
  "about": "“PHYTOESTROGENIC FORMULATIONS FOR ALLEVIATION OR PREVENTION OF HAIR LOSS” (University of Southern California, priority 2010, published 2012)",
  "key": {"ERα [1]": {"biological_target": "T1, ERα (Homo sapiens, UniProt P03372)", "T1 sequence (P03372 1-595)": "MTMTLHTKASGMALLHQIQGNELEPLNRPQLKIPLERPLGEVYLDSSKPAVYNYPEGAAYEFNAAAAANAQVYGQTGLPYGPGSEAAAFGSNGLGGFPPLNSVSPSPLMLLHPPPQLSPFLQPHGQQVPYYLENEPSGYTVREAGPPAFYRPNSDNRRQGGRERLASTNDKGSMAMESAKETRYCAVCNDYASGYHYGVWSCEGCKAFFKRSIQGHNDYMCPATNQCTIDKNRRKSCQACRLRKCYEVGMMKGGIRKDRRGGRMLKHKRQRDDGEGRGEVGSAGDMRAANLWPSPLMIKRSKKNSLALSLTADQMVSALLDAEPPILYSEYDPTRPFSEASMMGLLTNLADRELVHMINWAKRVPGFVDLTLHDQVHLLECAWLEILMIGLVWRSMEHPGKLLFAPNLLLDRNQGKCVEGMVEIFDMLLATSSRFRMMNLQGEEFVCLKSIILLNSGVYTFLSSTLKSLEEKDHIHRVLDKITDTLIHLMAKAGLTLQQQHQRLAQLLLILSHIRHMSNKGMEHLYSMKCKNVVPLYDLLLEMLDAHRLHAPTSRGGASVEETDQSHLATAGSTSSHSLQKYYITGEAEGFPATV", "assay": "fluorescent polarization competitive binding assay, ERα", "parameters": "purchased PanVera Corp; host or cells: baculovirus expression", "details": "for IC50: class symbol NC"}, "ERβ [2]": {"biological_target": "T2, ERβ (Homo sapiens, UniProt Q92731)", "assay": "fluorescent polarization competitive binding assay, ERβ", "parameters": "purchased PanVera Corp; host or cells: baculovirus expression", "details": "for IC50: class symbol NC"}, "ERα [3]": {"biological_target": "T1, ERα", "details": "cited from earlier work"}, "ERβ [4]": {"biological_target": "T2, ERβ", "details": "cited from earlier work"}},
  "data": [
    {"smiles": "Oc1ccc(C2COc3cc(O)ccc3C2)cc1", "note": "(stereo not shown) [Compd 2]", "values": [
      {"measurement": "IC50", "setting": "ERα [1]", "value": "> 1000", "unit": "µM"}
    ]},
    {"smiles": "Cc1oc2cc(O)ccc2c(=O)c1-c1cc2ccccc2o1", "note": "[Compd 4]", "values": [
      {"measurement": "IC50", "setting": "ERα [1]", "value": "> 1000", "unit": "µM"},
      {"measurement": "binding to ERβ / the receptor (in words)", "setting": "ERβ [2]", "value": "either very weak or no binding"},
      {"measurement": "IC50", "setting": "ERβ [2]", "value": "> 1000", "unit": "µM"}
    ]},
    {"smiles": "O=c1oc2cc(OCc3cccc(O)c3)ccc2c2c1CCC2", "note": "[Compd 10]", "values": [
      {"measurement": "IC50", "setting": "ERα [1]", "value": "> 1000", "unit": "µM"},
      {"measurement": "binding to ERβ / the receptor (in words)", "setting": "ERβ [2]", "value": "either very weak or no binding"},
      {"measurement": "IC50", "setting": "ERβ [2]", "value": "> 1000", "unit": "µM"}
    ]},
    {"smiles": "O=c1nc2n(c3cc4ccccc4cc13)Cc1ccccc1-2", "note": "[Compd 12]", "values": [
      {"measurement": "binding to ERβ / the receptor (in words)", "setting": "ERβ [2]", "value": "either very weak or no binding"}
    ]},
    {"smiles": "Oc1ccc([C@@H]2COc3cc(O)ccc3C2)cc1", "note": "[R-equol]", "values": [
      {"measurement": "relative binding affinity for ERα compared to 17β-estradiol", "setting": "ERα [3]", "value": 210.6, "unit": "fold less"},
      {"measurement": "binding to ERβ, R-equol enantiomer, fold less", "setting": "ERβ [4]", "value": "approximately 100 fold less"}
    ]},
    {"smiles": "Oc1ccc([C@H]2COc3cc(O)ccc3C2)cc1", "note": "[S-equol]", "values": [
      {"measurement": "binding affinity for ERα compared to ERβ", "setting": "ERα [3]", "value": 10, "unit": "fold less"},
      {"measurement": "relative binding affinity for ERα compared to 17β-estradiol", "setting": "ERα [3]", "value": 49.2, "unit": "fold less"},
      {"measurement": "Kd", "setting": "ERβ [4]", "value": 0.0007, "unit": "µM"},
      {"measurement": "binding to ERβ relative to 17β-estradiol", "setting": "ERβ [4]", "value": "approximately 20%"}
    ]},
    {"smiles": "CC(=O)[C@H]1CC[C@H]2[C@@H]3CCC4=CC(=O)CC[C@]4(C)[C@H]3CC[C@]12C", "note": "[progesterone, reference compound]", "values": [
      {"measurement": "binding to ERα (in words)", "setting": "ERα [1]", "value": "does not bind"},
      {"measurement": "binding to ERβ / the receptor (in words)", "setting": "ERβ [2]", "value": "does not bind"}
    ]}
  ]
}
